{
  "source": "the supplement of paper PMC10307832",
  "assay_in_all_cases": "relative viability (nuclei count vs DMSO), 5 days (fraction); higher = more cells survive",
  "key": {"A549": {"test_system": "A549", "procedure,_shortened": "(§1)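 Dosing by pin tool came one day after lung cancer cell lines were seeded in 1536-well plates, using either one drug or a fixed anchor-drug dose plus five library-drug doses (not always all listed) in √10 steps. After 5 days, nuclei were counted on 4× images. Relative viability is treated-well nuclei count divided by vehicle-well nuclei count, and values are medians of duplicate plates.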"}, "NCI-H1623": {"test_system": "NCI-H1623", "procedure,_shortened": "as §1"}, "IA-LM": {"test_system": "IA-LM", "procedure,_shortened": "as §1"}, "NCI-H1299": {"test_system": "NCI-H1299", "procedure,_shortened": "as §1"}, "LCLC-103H": {"test_system": "LCLC-103H", "procedure,_shortened": "as §1"}, "Calu-6": {"test_system": "Calu-6", "procedure,_shortened": "as §1"}, "NCI-H1703": {"test_system": "NCI-H1703", "procedure,_shortened": "as §1"}, "NCI-H1355": {"test_system": "NCI-H1355", "procedure,_shortened": "as §1"}, "NCI-H520": {"test_system": "NCI-H520", "procedure,_shortened": "as §1"}, "EBC-1": {"test_system": "EBC-1", "procedure,_shortened": "as §1"}},
  "data": [
    {"smiles": "NC(=O)Nc1cc(-c2cccc(F)c2)sc1C(=O)N[C@H]1CCCNC1", "note": "[AZD7762] + COc1cc2c(Oc3ccc(NC(=O)C4(C(=O)Nc5ccc(F)cc5)CC4)cc3F)ccnc2cc1OCCCN1CCOCC1 [Foretinib] (partner 0.25 µM)", "values": [
      {"measurement": "relative viability", "setting": "A549; first compound 0.01 µM", "result": 1.02},
      {"measurement": "relative viability", "setting": "A549; first compound 0.03162 µM", "result": 0.928},
      {"measurement": "relative viability", "setting": "A549; first compound 0.1 µM", "result": 0.942},
      {"measurement": "relative viability", "setting": "A549; first compound 0.3162 µM", "result": 0.837},
      {"measurement": "relative viability", "setting": "A549; first compound 1 µM", "result": 0.259},
      {"measurement": "relative viability", "setting": "NCI-H1623; first compound 0.01 µM", "result": 0.874},
      {"measurement": "relative viability", "setting": "NCI-H1623; first compound 0.03162 µM", "result": 0.821},
      {"measurement": "relative viability", "setting": "NCI-H1623; first compound 0.1 µM", "result": 1},
      {"measurement": "relative viability", "setting": "NCI-H1623; first compound 0.3162 µM", "result": 0.96},
      {"measurement": "relative viability", "setting": "NCI-H1623; first compound 1 µM", "result": 0.664},
      {"measurement": "relative viability", "setting": "IA-LM; first compound 0.01 µM", "result": 1.44},
      {"measurement": "relative viability", "setting": "IA-LM; first compound 0.03162 µM", "result": 1.29},
      {"measurement": "relative viability", "setting": "IA-LM; first compound 0.1 µM", "result": 1.48},
      {"measurement": "relative viability", "setting": "IA-LM; first compound 0.3162 µM", "result": 1.29},
      {"measurement": "relative viability", "setting": "IA-LM; first compound 1 µM", "result": 0.59},
      {"measurement": "relative viability", "setting": "NCI-H1299; first compound 0.01 µM", "result": 1.09},
      {"measurement": "relative viability", "setting": "NCI-H1299; first compound 0.03162 µM", "result": 1.15},
      {"measurement": "relative viability", "setting": "NCI-H1299; first compound 0.1 µM", "result": 1.09},
      {"measurement": "relative viability", "setting": "NCI-H1299; first compound 0.3162 µM", "result": 1.07},
      {"measurement": "relative viability", "setting": "NCI-H1299; first compound 1 µM", "result": 0.622},
      {"measurement": "relative viability", "setting": "LCLC-103H; first compound 0.01 µM", "result": 0.815},
      {"measurement": "relative viability", "setting": "LCLC-103H; first compound 0.03162 µM", "result": 0.829},
      {"measurement": "relative viability", "setting": "LCLC-103H; first compound 0.1 µM", "result": 0.82},
      {"measurement": "relative viability", "setting": "LCLC-103H; first compound 0.3162 µM", "result": 0.764},
      {"measurement": "relative viability", "setting": "LCLC-103H; first compound 1 µM", "result": 0.823},
      {"measurement": "relative viability", "setting": "Calu-6; first compound 0.01 µM", "result": 0.805},
      {"measurement": "relative viability", "setting": "Calu-6; first compound 0.03162 µM", "result": 0.83},
      {"measurement": "relative viability", "setting": "Calu-6; first compound 0.1 µM", "result": 0.831},
      {"measurement": "relative viability", "setting": "Calu-6; first compound 0.3162 µM", "result": 0.264},
      {"measurement": "relative viability", "setting": "Calu-6; first compound 1 µM", "result": 0.0933},
      {"measurement": "relative viability", "setting": "NCI-H1703; first compound 0.01 µM", "result": 0.398},
      {"measurement": "relative viability", "setting": "NCI-H1703; first compound 0.03162 µM", "result": 0.34},
      {"measurement": "relative viability", "setting": "NCI-H1703; first compound 0.1 µM", "result": 0.348},
      {"measurement": "relative viability", "setting": "NCI-H1703; first compound 0.3162 µM", "result": 0.292},
      {"measurement": "relative viability", "setting": "NCI-H1703; first compound 1 µM", "result": 0.174},
      {"measurement": "relative viability", "setting": "NCI-H1355; first compound 0.01 µM", "result": 0.964},
      {"measurement": "relative viability", "setting": "NCI-H1355; first compound 0.03162 µM", "result": 0.975},
      {"measurement": "relative viability", "setting": "NCI-H1355; first compound 0.1 µM", "result": 0.967},
      {"measurement": "relative viability", "setting": "NCI-H1355; first compound 0.3162 µM", "result": 1.02},
      {"measurement": "relative viability", "setting": "NCI-H1355; first compound 1 µM", "result": 0.995},
      {"measurement": "relative viability", "setting": "NCI-H520; first compound 0.01 µM", "result": 0.989},
      {"measurement": "relative viability", "setting": "NCI-H520; first compound 0.03162 µM", "result": 0.826},
      {"measurement": "relative viability", "setting": "NCI-H520; first compound 0.1 µM", "result": 0.803},
      {"measurement": "relative viability", "setting": "NCI-H520; first compound 0.3162 µM", "result": 0.518},
      {"measurement": "relative viability", "setting": "NCI-H520; first compound 1 µM", "result": 0.351},
      {"measurement": "relative viability", "setting": "EBC-1; first compound 0.01 µM", "result": 0.101},
      {"measurement": "relative viability", "setting": "EBC-1; first compound 0.03162 µM", "result": 0.0952},
      {"measurement": "relative viability", "setting": "EBC-1; first compound 0.1 µM", "result": 0.105},
      {"measurement": "relative viability", "setting": "EBC-1; first compound 0.3162 µM", "result": 0.119},
      {"measurement": "relative viability", "setting": "EBC-1; first compound 1 µM", "result": 0.116}
    ]},
    {"smiles": "C=C1C(=O)O[C@@H](CCCCCCCC)[C@@H]1C(=O)O", "note": "[C-75] + COc1cc2c(Oc3ccc(NC(=O)C4(C(=O)Nc5ccc(F)cc5)CC4)cc3F)ccnc2cc1OCCCN1CCOCC1 [Foretinib] (partner 0.25 µM)", "values": [
      {"measurement": "relative viability", "setting": "A549; first compound 0.08 µM", "result": 0.946},
      {"measurement": "relative viability", "setting": "A549; first compound 0.253 µM", "result": 0.977},
      {"measurement": "relative viability", "setting": "A549; first compound 0.8 µM", "result": 1.01},
      {"measurement": "relative viability", "setting": "A549; first compound 8 µM", "result": 0.869},
      {"measurement": "relative viability", "setting": "NCI-H1623; first compound 0.08 µM", "result": 0.861},
      {"measurement": "relative viability", "setting": "NCI-H1623; first compound 0.253 µM", "result": 1.09},
      {"measurement": "relative viability", "setting": "NCI-H1623; first compound 0.8 µM", "result": 0.747},
      {"measurement": "relative viability", "setting": "NCI-H1623; first compound 2.53 µM", "result": 0.686},
      {"measurement": "relative viability", "setting": "NCI-H1623; first compound 8 µM", "result": 0.993},
      {"measurement": "relative viability", "setting": "IA-LM; first compound 0.08 µM", "result": 1.14},
      {"measurement": "relative viability", "setting": "IA-LM; first compound 0.253 µM", "result": 1.38},
      {"measurement": "relative viability", "setting": "IA-LM; first compound 0.8 µM", "result": 1.02},
      {"measurement": "relative viability", "setting": "IA-LM; first compound 2.53 µM", "result": 1.25},
      {"measurement": "relative viability", "setting": "IA-LM; first compound 8 µM", "result": 1.01},
      {"measurement": "relative viability", "setting": "NCI-H1299; first compound 0.08 µM", "result": 1.12},
      {"measurement": "relative viability", "setting": "NCI-H1299; first compound 0.253 µM", "result": 1.03},
      {"measurement": "relative viability", "setting": "NCI-H1299; first compound 0.8 µM", "result": 1.04},
      {"measurement": "relative viability", "setting": "NCI-H1299; first compound 2.53 µM", "result": 1.04},
      {"measurement": "relative viability", "setting": "NCI-H1299; first compound 8 µM", "result": 1.11},
      {"measurement": "relative viability", "setting": "LCLC-103H; first compound 0.08 µM", "result": 0.814},
      {"measurement": "relative viability", "setting": "LCLC-103H; first compound 0.253 µM", "result": 0.736},
      {"measurement": "relative viability", "setting": "LCLC-103H; first compound 0.8 µM", "result": 0.687},
      {"measurement": "relative viability", "setting": "LCLC-103H; first compound 2.53 µM", "result": 0.598},
      {"measurement": "relative viability", "setting": "LCLC-103H; first compound 8 µM", "result": 0.743},
      {"measurement": "relative viability", "setting": "Calu-6; first compound 0.08 µM", "result": 0.875},
      {"measurement": "relative viability", "setting": "Calu-6; first compound 0.253 µM", "result": 0.914},
      {"measurement": "relative viability", "setting": "Calu-6; first compound 0.8 µM", "result": 0.81},
      {"measurement": "relative viability", "setting": "Calu-6; first compound 2.53 µM", "result": 0.634},
      {"measurement": "relative viability", "setting": "Calu-6; first compound 8 µM", "result": 0.907},
      {"measurement": "relative viability", "setting": "NCI-H1703; first compound 0.08 µM", "result": 0.399},
      {"measurement": "relative viability", "setting": "NCI-H1703; first compound 0.253 µM", "result": 0.334},
      {"measurement": "relative viability", "setting": "NCI-H1703; first compound 0.8 µM", "result": 0.325},
      {"measurement": "relative viability", "setting": "NCI-H1703; first compound 2.53 µM", "result": 0.355},
      {"measurement": "relative viability", "setting": "NCI-H1703; first compound 8 µM", "result": 0.388},
      {"measurement": "relative viability", "setting": "NCI-H1355; first compound 0.08 µM", "result": 0.948},
      {"measurement": "relative viability", "setting": "NCI-H1355; first compound 0.253 µM", "result": 0.892},
      {"measurement": "relative viability", "setting": "NCI-H1355; first compound 0.8 µM", "result": 0.972},
      {"measurement": "relative viability", "setting": "NCI-H1355; first compound 2.53 µM", "result": 0.927},
      {"measurement": "relative viability", "setting": "NCI-H1355; first compound 8 µM", "result": 0.958},
      {"measurement": "relative viability", "setting": "NCI-H520; first compound 0.08 µM", "result": 0.728},
      {"measurement": "relative viability", "setting": "NCI-H520; first compound 0.253 µM", "result": 0.95},
      {"measurement": "relative viability", "setting": "NCI-H520; first compound 0.8 µM", "result": 0.831},
      {"measurement": "relative viability", "setting": "NCI-H520; first compound 2.53 µM", "result": 0.909},
      {"measurement": "relative viability", "setting": "NCI-H520; first compound 8 µM", "result": 0.794},
      {"measurement": "relative viability", "setting": "EBC-1; first compound 0.08 µM", "result": 0.101},
      {"measurement": "relative viability", "setting": "EBC-1; first compound 0.253 µM", "result": 0.11},
      {"measurement": "relative viability", "setting": "EBC-1; first compound 0.8 µM", "result": 0.107},
      {"measurement": "relative viability", "setting": "EBC-1; first compound 8 µM", "result": 0.0983}
    ]}
  ]
}
